Tests used:
Assay type in all cases: in vivo
[1] = tested on: field corn (Zea mays L., var. Dekalb 535, CORN); assay: Post-emerge test, crop safety; conditions: post-emerge, 14 days after application, rating scale 0-100
How it was run: (§1)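 Compounds in acetone were track-sprayed at 15-1000 g ai/ha (187 l/ha) on sandy loam pots: pre-emerge one day after seeding, post-emerge at 2-3 leaf stage with 0.25% v/v non-ionic surfactant. Phytotoxicity was rated 14 days later on a 0 (no damage) to 100 (complete death) scale.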

[2] = tested on: upland rice (Oryza sp., var. Tebonnet, RICE); assay: Post-emerge test, crop safety; conditions: post-emerge, 63 g ai/ha, 14 days after application, rating scale 0-100
How it was run: as §1

[3] = tested on: redroot pigweed (Amaranthus retroflexus, AMARE); assay: Pre-emerge test, greenhouse herbicide activity screening; conditions: phytotoxicity rating 0-100, 14 days after application
How it was run: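 Herbicidal damage is scored 0 (none) to 100 (complete plant death) two weeks after a simulated field spray. Rates span 15–1000 g ai/ha, delivered in acetone at 187 l/ha. For post-emergence treatments, plants have 2–3 leaves and the spray carries 0.25% v/v non-ionic surfactant.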

[4] = tested on: field corn (Zea mays L., var. Dekalb 535, CORN); assay: Pre-emerge test, crop safety; conditions: crop damage rating 0-100, 14 days after application
How it was run: (§2)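 Applied at 15–1000 g ai/ha from acetone in 187 l/ha spray volume. Post-emergence applications included 0.25% v/v non-ionic surfactant and reached plants sown 8–21 days before. Pre-emergence applications were incorporated by surface watering. Efficacy or crop damage was rated on a 0–100 scale after 14 days.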

[5] = tested on: upland rice (Oryza sp., var. Tebonnet, RICE); assay: Pre-emerge test, crop safety; conditions: crop damage rating 0-100, 14 days after application
How it was run: as §2

[6] = tested on: common ragweed (Ambrosia artemisizfolia L., AMBEL); assay: Post-emerge test, greenhouse herbicide activity screening; conditions: post-emerge, 14 days after application, rating scale 0-100
How it was run: (§3)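 Each test used a mechanized track sprayer delivering 187 l/ha of acetone solution at 15–1000 g ai/ha. Post-emerge foliage at 2–3 leaves was treated with added 0.25% v/v non-ionic surfactant and bottom-watered only. Injury was assessed on day 14, where 100 means total kill.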

[7] = tested on: ivyleaf morningglory (Ipomoea hederacea, IPOHE); assay: as above; conditions: post-emerge, 14 days after application, rating scale 0-100
How it was run: as §3

[8] = tested on: large crabgrass (Digitaria sanguinalis, DIGSA); assay: as above; conditions: post-emerge, 14 days after application, rating scale 0-100
How it was run: as §3

[9] = tested on: johnsongrass (Sorghum halepense, SORHA); assay: as above; conditions: post-emerge, 14 days after application, rating scale 0-100
How it was run: as §3

[10] = tested on: green foxtail (Setaria viridis, SETVI); assay: as above; conditions: post-emerge, 14 days after application, rating scale 0-100
How it was run: as §3

[11] = tested on: sicklepod (Cassia obtusifolia, CASOB); assay: as above; conditions: post-emerge, 14 days after application, rating scale 0-100
How it was run: as §3

[12] = tested on: barnyardgrass (Echinochloa crus-galli, ECHCG); assay: as above; conditions: post-emerge, 14 days after application, rating scale 0-100
How it was run: as §3

[13] = tested on: redroot pigweed (Amaranthus retroflexus, AMARE); assay: as above; conditions: post-emerge, 14 days after application
How it was run: as §3

[14] = tested on: lambsquarters (Chenopodium album, CHEAL); assay: as above; conditions: post-emerge, 14 days after application, rating scale 0-100
How it was run: as §3

[15] = tested on: velvetleaf (Abutilon theophrasti, ABUTH); assay: as above; conditions: post-emerge, 14 days after application, rating scale 0-100
How it was run: as §3

[16] = tested on: common ragweed (Ambrosia artemisizfolia L., AMBEL); assay: Pre-emerge test, greenhouse herbicide activity screening; conditions: phytotoxicity rating 0-100, 14 days after application
How it was run: as §1

[17] = tested on: ivyleaf morningglory (Ipomoea hederacea, IPOHE); assay: as above; conditions: phytotoxicity rating 0-100, 14 days after application
How it was run: as §1

[18] = tested on: large crabgrass (Digitaria sanguinalis, DIGSA); assay: as above; conditions: phytotoxicity rating 0-100, 14 days after application
How it was run: as §1

[19] = tested on: johnsongrass (Sorghum halepense, SORHA); assay: as above; conditions: phytotoxicity rating 0-100, 14 days after application
How it was run: as §1

[20] = tested on: green foxtail (Setaria viridis, SETVI); assay: as above; conditions: phytotoxicity rating 0-100, 14 days after application
How it was run: as §1

[21] = tested on: sicklepod (Cassia obtusifolia, CASOB); assay: as above; conditions: phytotoxicity rating 0-100, 14 days after application
How it was run: as §1

[22] = tested on: barnyardgrass (Echinochloa crus-galli, ECHCG); assay: as above; conditions: phytotoxicity rating 0-100, 14 days after application
How it was run: as §1

[23] = tested on: lambsquarters (Chenopodium album, CHEAL); assay: as above; conditions: phytotoxicity rating 0-100, 14 days after application
How it was run: as §1

[24] = tested on: velvetleaf (Abutilon theophrasti, ABUTH); assay: as above; conditions: phytotoxicity rating 0-100, 14 days after application
How it was run: as §1

“2-(4-chloro-3-ethoxy-6-fluoro-2-naphthoylamidophenyl)-1-methyl-6-trifluoromethyl-2,4(1H, 3H)-pyrimidinedione [Compound 2-196]” was tested, and the “phytotoxicity rating CORN (crop damage)” value ([1]; 63 g ai/ha) was 10, the “phytotoxicity rating CORN (crop damage)” value ([1]; 250 g ai/ha) was 15 and the “phytotoxicity rating RICE (crop damage)” value [2] was 30. For the same substance, the “Pre-emerge Herbicidal Activity AMARE” value ([3]; 63 g ai/ha) was 100, the “Pre-emerge Herbicidal Activity AMARE” value ([3]; 250 g ai/ha) was 100 and the “Pre-emerge Herbicidal Activity CORN” value ([4]; 63 g ai/ha) was 0. For the same substance, the “Pre-emerge Herbicidal Activity CORN” value ([4]; 250 g ai/ha) was 0, the “Pre-emerge Herbicidal Activity RICE” value ([5]; 63 g ai/ha) was 20 and the “Pre-emerge Herbicidal Activity RICE” value ([5]; 250 g ai/ha) was 50. For the same substance, the “phytotoxicity rating AMBEL” value ([6]; 63 g ai/ha) was 100, the “phytotoxicity rating AMBEL” value ([6]; 250 g ai/ha) was 90 and the “phytotoxicity rating IPOHE” value ([7]; 63 g ai/ha) was 90. For the same substance, the “phytotoxicity rating IPOHE” value ([7]; 250 g ai/ha) was 100, the “phytotoxicity rating DIGSA” value ([8]; 63 g ai/ha) was 10 and the “phytotoxicity rating DIGSA” value ([8]; 250 g ai/ha) was 20. The “phytotoxicity rating SORHA” value ([9]; 63 g ai/ha) was 10, the “phytotoxicity rating SORHA” value ([9]; 250 g ai/ha) was 10 and the “phytotoxicity rating SETVI” value ([10]; 63 g ai/ha) was 30. For the same substance, the “phytotoxicity rating SETVI” value ([10]; 250 g ai/ha) was 20, the “phytotoxicity rating CASOB” value ([11]; 63 g ai/ha) was 100 and the “phytotoxicity rating CASOB” value ([11]; 250 g ai/ha) was 100. The “phytotoxicity rating ECHCG” value ([12]; 63 g ai/ha) was 10, the “phytotoxicity rating ECHCG” value ([12]; 250 g ai/ha) was 10 and the “phytotoxicity rating AMARE” value ([13]; 63 g ai/ha, rating scale 0-100 (0 no damage, 100 complete death)) was 100. For the same substance, the “phytotoxicity rating AMARE” value ([13]; 250 g ai/ha, rating scale 0-100) was 100, the “phytotoxicity rating CHEAL” value ([14]; 63 g ai/ha) was 100 and the “phytotoxicity rating CHEAL” value ([14]; 250 g ai/ha) was 100. The “phytotoxicity rating ABUTH” value ([15]; 63 g ai/ha) was 100, the “phytotoxicity rating ABUTH” value ([15]; 250 g ai/ha) was 100 and the “Pre-emerge Herbicidal Activity AMBEL” value ([16]; 63 g ai/ha) was 30. The “Pre-emerge Herbicidal Activity AMBEL” value ([16]; 250 g ai/ha) was 90, the “Pre-emerge Herbicidal Activity IPOHE” value ([17]; 63 g ai/ha) was 20 and the “Pre-emerge Herbicidal Activity IPOHE” value ([17]; 250 g ai/ha) was 70. The “Pre-emerge Herbicidal Activity DIGSA” value ([18]; 63 g ai/ha) was 90, the “Pre-emerge Herbicidal Activity DIGSA” value ([18]; 250 g ai/ha) was 100 and the “Pre-emerge Herbicidal Activity SORHA” value ([19]; 63 g ai/ha) was 10. The “Pre-emerge Herbicidal Activity SORHA” value ([19]; 250 g ai/ha) was 20, the “Pre-emerge Herbicidal Activity SETVI” value ([20]; 63 g ai/ha) was 90 and the “Pre-emerge Herbicidal Activity SETVI” value ([20]; 250 g ai/ha) was 100. The “Pre-emerge Herbicidal Activity CASOB” value ([21]; 63 g ai/ha) was 0, the “Pre-emerge Herbicidal Activity CASOB” value ([21]; 250 g ai/ha) was 60 and the “Pre-emerge Herbicidal Activity ECHCG” value ([22]; 63 g ai/ha) was 40. The “Pre-emerge Herbicidal Activity ECHCG” value ([22]; 250 g ai/ha) was 85, the “Pre-emerge Herbicidal Activity CHEAL” value ([23]; 63 g ai/ha) was 100 and the “Pre-emerge Herbicidal Activity CHEAL” value ([23]; 250 g ai/ha) was 100. The “Pre-emerge Herbicidal Activity ABUTH” value ([24]; 63 g ai/ha) was 100 and the “Pre-emerge Herbicidal Activity ABUTH” value ([24]; 250 g ai/ha) was 100.

From US6355799B1, “Substituted benzene compounds, process for their preparation, and herbicidal and defoliant compositions containing them” (ISK Americas Incorporated, priority 1997, dated 2002)
